The record followed here is US4259235A, “Tricyclic nitrogenous compounds having string plant growth regulating properties” (BASF Aktiengesellschaft, priority 1977, dated 1981).

One assay deals with Ipom. spp. The assay can be described thus: Herbicidal action, pre- and postemergence application in the greenhouse. The format is in vivo, Ipomoea spp. The conditions noted are these: Ipomoea, post-emergence; 3.0 kg/ha POST; read-out: % damage. The method, then:
(§1) Plastic flowerpots having a volume of 300 cm^3 were filled with a sandy loam and the test plants placed therein (either as seed, as vegetatively reproduced species, or as potted plants, e.g., vines). For preemergence treatment, the active ingredients were suspended or emulsified in water as vehicle and sprayed onto the surface of the soil immediately after sowing by means of finely distributing nozzles. The potted vines were treated by spraying them with the correspondingly diluted liquor. For postemergence treatment, the agents were, as stated above, sprayed in water onto the leaves of the test plants, some liquor also falling onto the soil. In some special cases, solid active ingredients were first dissolved in dimethylformamide and then applied in a total liquor amount of 400 liters of water per hectare. For the postemergence treatment, the plants were first grown to a height of from 3 to 10 cm before being treated. With grasses, the first growth was cut, and the new growth treated 2 to 3 days after cutting. The temperature requirements of the plants were taken into account by placing them in cooler or warmer sections of the greenhouse. The experiments were run for from 4 to 6 weeks, during which time the plants were tended and their reaction to the various treatments was assessed.
(§2) The application rates are given in kg/ha of active ingredient, regardless of the method of application and the amount of water used.
(§3) A 0 to 100 scale was used for the evaluation, 0 denoting normal emergence or no damage (or no inhibition), and 100 denoting non-emergence or complete destruction of the plants. A distinction should be made in the influence on growth between desired changes without any appreciable disadvantageous phytotoxic effects (e.g., purely growth-regulating effects) and those of a phytotoxic herbicical character.

In another assay the test system is Mentha piper. The assay is described as above. Type of assay: in vivo. As to conditions: post-emergence; 3.0 kg/ha POST; read-out: % damage. The protocol:
as §1, §2, §3

The test system of another assay is Sinapis alba. Described as above. Type of assay: in vivo. The conditions noted are these: post-emergence, read-out: % damage. The protocol:
as §1, §2, §3

Another assay deals with Lolium mult. The assay is described as above. The conditions noted are these: for pest or weed control at 3000 g/ha: Lolium, post-emergence, read-out: % damage. The format is in vivo. The method, then:
as §1, §2, §3

A further assay concerns Viola tric. Described as above. The conditions noted are these: 3.0 kg/ha POST. Type of assay: in vivo. The protocol:
as §1, §2, §3

Another assay relates to Echin. c.g. The assay can be described thus: Removal and inhibition of unwanted plants, preemergence, greenhouse. Type of assay: in vivo, Echinochloa crus galli. The protocol:
as §1, §2, §3

Another assay relates to Setar. spp. Described as above. The format is in vivo. The method, then:
as §1, §2, §3

The next assay deals with Lam. spp. Described as above. Type of assay: in vivo. The protocol: as §1, §2, §3
Another assay has as its system Solan. nig. The description is as above. Type of assay: in vivo, Solanum nigrum. The protocol: as §1, §2, §3
In a further assay the test system is Cyper. esc. The description is as above. Type of assay: in vivo, Cyperus esculentus. The method, then: as §1, §2, §3
The next assay has as its system Cynodon dactyl. Kind of assay: Shoot inhibition, pre- and postemergence treatment (table 28). The format is in vivo, Cynodon dactylon. The conditions noted are these: post-emergence, read-out: % shoot inhibition. The method, then:
as §1, §2, §3

For the next assay, the system named is Arachys hypog. The description is as above. Type of assay: in vivo, Arachys hypogaea. As to conditions: post-emergence, read-out: % shoot inhibition. The protocol: as §1, §2, §3
For assay [1], the system named is Euphorbia geniculata. The assay can be described thus: Inhibition of shoot growth by growth regulators, pre- and postemergence (table 27). The format is in vivo. The conditions noted are these: Euphorbia heterophylla, post-emergence, read-out: shoot growth inhibition (%). The method, then: as §1, §2, §3
The next assay deals with Medicago sativa. Described as above. Type of assay: in vivo. The conditions noted are these: post-emergence, read-out: shoot growth inhibition (%). The protocol: as §1, §2, §3
The subject of another assay is Hordeum vulg. Kind of assay: Shoot inhibition, pre- and postemergence treatment (table 28). The format is in vivo, Hordeum vulgare. The conditions noted are these: post-emergence. The method, then: as §1, §2, §3
A further assay has as its system Tritic. aestiv. The assay is described as above. The format is in vivo. As to conditions: post-emergence. The method, then: as §1, §2, §3
The next assay concerns Poa prat. Described as above. The conditions noted are these: Poa pratensis, post-emergence, read-out: % shoot inhibition. Type of assay: in vivo. The protocol: as §1, §2, §3
The next assay deals with Glycine max. The assay is described as above. Type of assay: in vivo. As to conditions: post-emergence, read-out: % shoot inhibition. The method, then: as §1, §2, §3
Assay [2] concerns Poa pratensis. Kind of assay: Growth inhibition in lawns, preemergence treatment in the greenhouse. Type of assay: in vivo. The conditions noted are these: Poa pratensis, pre-emergence, read-out: % growth inhibition after emergence. The method, then:
as §1, §2, §3

The test system of a further assay is Euphorbia genic. The assay can be described thus: Shoot inhibition, pre- and postemergence treatment (table 28). The format is in vivo, Euphorbia geniculata. The conditions noted are these: post-emergence, read-out: % shoot inhibition. The protocol: as §1, §2, §3
The test system of assay [3] is Poa pratensis. Kind of assay: Shoot growth, postemergence treatment in the greenhouse (table 26). Type of assay: in vivo. The protocol: as §1, §2, §3
Assay [4] has as its system Euphorbia geniculata. The assay is described as above. Type of assay: in vivo. The method, then:
as §1, §2, §3

The test system of another assay is Cynodon dactylon. Described as above. Type of assay: in vivo. As to conditions: from seed. The method, then:
as §1, §2, §3

The next assay has as its system Hordeum vulgare. Described as above. The format is in vivo. The method, then:
as §1, §2, §3

Another assay deals with Cynodon dact. (seed). Kind of assay: Herbicidal action, pre- and postemergence application in the greenhouse. The format is in vivo, Cynodon dactylon. The protocol: as §1, §2, §3
The test system of a further assay is Euph. gen. The assay is described as above. Type of assay: in vivo, Euphorbia geniculata. The protocol: as §1, §2, §3
[5] abbreviates: read-out: % shoot inhibition, 1.0 kg/ha POST.
The mark [6] stands for this setting: read-out: % shoot inhibition, 1.0 kg/ha PRE.
[7] abbreviates: read-out: % shoot inhibition, 2.0 kg/ha POST.
The mark [8] stands for this setting: read-out: % shoot inhibition, 2.0 kg/ha PRE.

Like-named read-outs stand apart in the source and are kept apart here.

As to `OC1C(O)C2CC1C1N=NC21` (stereo not shown), the pest or weed control at 3000 g/ha was 100% with Ipom. spp.; 100% with Mentha piper.; 80% with Sinapis alba (3.0 kg/ha PRE); 95% with Lolium mult. (3.0 kg/ha POST); 90% in the assay with Lolium mult. (3.0 kg/ha PRE). For the same molecule, the “% damage” value in the assay on Viola tric. was 95%.

Regarding `BrC1C(Br)C2CC1C1N=NC21` (stereo not shown) [drawing 430], the “% damage” value with Echin. c.g. (2.0 kg/ha PRE) is 50%; with Echin. c.g. (4.0 kg/ha PRE), 80%; with Echin. c.g. (8.0 kg/ha PRE), 90%; in the assay on Setar. spp. (2.0 kg/ha PRE) it was 100%; in the assay with Setar. spp. (4.0 kg/ha PRE), 100%; in the assay with Setar. spp. (8.0 kg/ha PRE), 100%. For the same molecule, the “% damage” value in the assay on Lam. spp. (2.0 kg/ha PRE), with Lam. spp. (4.0 kg/ha PRE), in the assay with Lam. spp. (8.0 kg/ha PRE), with Solan. nig. (2.0 kg/ha PRE), in the assay on Solan. nig. (4.0 kg/ha PRE) and with Solan. nig. (8.0 kg/ha PRE) was 95% in each case. The “% damage” value came to 20% in the assay with Cyper. esc. (2.0 kg/ha PRE), 55% in the assay with Cyper. esc. (4.0 kg/ha PRE) and 70% in the assay with Cyper. esc. (8.0 kg/ha PRE).

As to `C[N+](C)(C)CCCl` [[ClCH2CH2N(C⊕H3)3]⊖ Cl, reference compound], the inhibition at 1000 g/ha in the assay on Cynodon dactyl. came to 0%; with Arachys hypog. it was 0%; with Euphorbia geniculata [1], 0%; with Medicago sativa, 0%; in the assay with Hordeum vulg. (setting [5]), 10%; in the assay on Hordeum vulg. (setting [6]) it was 20%. Further, the inhibition at 1000 g/ha in the assay on Tritic. aestiv. (setting [5]) amounted to 30%; in the assay with Tritic. aestiv. (setting [6]), 20%; in the assay with Poa prat., 0%; in the assay on Glycine max, 0%; in the assay with Poa pratensis [2] (1.0 kg/ha) it was 10%; in the assay with Euphorbia genic. it was 0%. Besides, the inhibition at 2000 g/ha in the assay on Cynodon dactyl. was found to be 0%; in the assay on Arachys hypog., 0%; in the assay on Euphorbia geniculata [1], 0%; in the assay with Medicago sativa, 0%; with Hordeum vulg. (setting [7]), 10%; in the assay on Hordeum vulg. (setting [8]), 20%. The inhibition at 2000 g/ha in the assay with Tritic. aestiv. (setting [7]) stood at 30%; in the assay on Tritic. aestiv. (setting [8]), 20%; in the assay with Poa prat., 0%; in the assay on Glycine max, 0%; in the assay with Poa pratensis [2] (2.0 kg/ha), 10%; with Euphorbia genic. it was 0%. Moreover, the inhibition at 500 g/ha in the assay on Euphorbia geniculata [1], in the assay with Medicago sativa and with Poa pratensis [2] (0.5 kg/ha) was 0% each time. Also, the inhibition at 4000 g/ha is 10% in the assay with Euphorbia geniculata [1], 0% in the assay with Medicago sativa and 10% with Poa pratensis [2] (4.0 kg/ha). For the same molecule, the Shoot length in the assay with Poa pratensis [3] (1.0 kg/ha) is reported as 20 cm; with Poa pratensis [3] (2.0 kg/ha), 19 cm; with Euphorbia geniculata [4] (0.5 kg/ha) it was 12.5 cm; in the assay with Euphorbia geniculata [4] (1.0 kg/ha), 13 cm; in the assay on Euphorbia geniculata [4] (2.0 kg/ha), 13 cm; in the assay with Cynodon dactylon (1.0 kg/ha) it was 7 cm. In addition, the Shoot length in the assay on Cynodon dactylon (2.0 kg/ha) was 7 cm; in the assay on Hordeum vulgare (0.5 kg/ha), 14 cm; in the assay on Hordeum vulgare (1.0 kg/ha) it was 14 cm; in the assay with Hordeum vulgare (2.0 kg/ha), 14 cm.

For `ClC1C(Cl)C2CC1C1N=NC21` (stereo not shown), the “% damage” value in the assay with Cynodon dact. (seed) (1.0 kg/ha PRE) is 90%; in the assay with Cynodon dact. (seed) (2.0 kg/ha POST) it was 100%; in the assay on Euph. gen. (1.0 kg/ha PRE) it was 70%; with Euph. gen. (2.0 kg/ha POST), 95%; with Lolium mult. (3.0 kg/ha POST), 100%. Further, the pest or weed control at 3000 g/ha in the assay with Lolium mult. came to 100%.

Regarding `BrC1C(Br)C2CC1C1N=NC21` (stereo not shown) [drawing 442], the “% damage” value is given as 100% with Cynodon dact. (seed) (1.0 kg/ha PRE) and 90% in the assay on Euph. gen. (1.0 kg/ha PRE). Moreover, the pest or weed control at 3000 g/ha in the assay on Sinapis alba (3.0 kg/ha POST) was 100%; in the assay with Sinapis alba (3.0 kg/ha PRE) it was 70%; with Lolium mult. (3.0 kg/ha POST) it was 100%; with Lolium mult. (3.0 kg/ha PRE), 40%.
